Values joined by “and” are separate entries in the source; they are usually repeats but may differ in a detail not shown here. Equal entries are not always repeated. Inconclusive results and toxic doses are left out. How the source made its calls: active means survival T/C of 150% or more; inactive means T/C below 125% in these data.
Tested on: P388 leukemia ip, CD2F1 mice, survival T/C
Test: NCI In Vivo Anticancer Drug Screen. Data for tumor model P388 Leukemia (intraperitoneal) in CD2F1 (CDF1) mice
Settings: endpoint: median survival time, higher = longer survival
Summary of the method: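 Mice carrying the transplanted tumor received test compound or vehicle. Survival was recorded in each group, and the value is the treated-group measurement divided by that of the vehicle-treated control group.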

[1] = dose: 60.0 mg/kg/injection, schedule: Q01DX005 (ip), vehicle: Klucel (hydroxypropylcellulose) (HPC)
[2] = dose: 120.0 mg/kg/injection, schedule: Q01DX005 (ip), vehicle: Klucel (hydroxypropylcellulose) (HPC)
[3] = dose: 240.0 mg/kg/injection, schedule: Q01DX005 (ip), vehicle: Klucel (hydroxypropylcellulose) (HPC)
[4] = dose: 25.0 mg/kg/injection, schedule: Q01DX009 (ip), vehicle: saline
[5] = dose: 25.0 mg/kg/injection, schedule: Q01DX005 (ip), vehicle: saline with Tween-80
[6] = dose: 50.0 mg/kg/injection, schedule: Q01DX005 (ip), vehicle: saline with Tween-80
[7] = dose: 50.0 mg/kg/injection, schedule: Q01DX009 (ip), vehicle: Klucel (hydroxypropylcellulose) (HPC)
[8] = dose: 100.0 mg/kg/injection, schedule: Q01DX009 (ip), vehicle: Klucel (hydroxypropylcellulose) (HPC)
[9] = dose: 12.5 mg/kg/injection, schedule: Q01DX009 (ip), vehicle: Klucel (hydroxypropylcellulose) (HPC)
[10] = dose: 25.0 mg/kg/injection, schedule: Q01DX009 (ip), vehicle: Klucel (hydroxypropylcellulose) (HPC)
[11] = dose: 100.0 mg/kg/injection, schedule: Q01DX009 (ip), vehicle: saline with Tween-80
[12] = dose: 100.0 mg/kg/injection, schedule: Q04DX003 (ip), vehicle: saline with Tween-80
[13] = dose: 200.0 mg/kg/injection, schedule: Q01DX009 (ip), vehicle: saline with Tween-80
[14] = dose: 200.0 mg/kg/injection, schedule: Q04DX003 (ip), vehicle: saline with Tween-80
[15] = dose: 400.0 mg/kg/injection, schedule: Q01DX009 (ip), vehicle: saline with Tween-80
[16] = dose: 400.0 mg/kg/injection, schedule: Q04DX003 (ip), vehicle: saline with Tween-80
[17] = dose: 60.0 mg/kg/injection, schedule: Q01DX005 (ip), vehicle: saline with Tween-80
[18] = dose: 120.0 mg/kg/injection, schedule: Q01DX005 (ip), vehicle: saline with Tween-80
[19] = dose: 240.0 mg/kg/injection, schedule: Q01DX005 (ip), vehicle: saline with Tween-80
[20] = dose: 100.0 mg/kg/injection, schedule: Q01DX001 (ip), vehicle: saline with Tween-80
[21] = dose: 200.0 mg/kg/injection, schedule: Q01DX001 (ip), vehicle: saline with Tween-80
[22] = dose: 400.0 mg/kg/injection, schedule: Q01DX001 (ip), vehicle: saline with Tween-80
[23] = dose: 50.0 mg/kg/injection, schedule: Q01DX005 (ip), vehicle: Klucel (hydroxypropylcellulose) (HPC)
[24] = dose: 100.0 mg/kg/injection, schedule: Q01DX005 (ip), vehicle: Klucel (hydroxypropylcellulose) (HPC)

Measured: T/C

O=C(Nc1ccc(C2=NCCN2)cc1)c1cc(Cl)cc(C(=O)Nc2ccc(C3=NCCN3)cc2)c1
inactive: dose: 140.0 mg/kg/injection, schedule: Q01DX010 (ip), vehicle: saline 95 % of control | dose: 210.0 mg/kg/injection, schedule: Q01DX010 (ip), vehicle: saline 90 % of control | dose: 315.0 mg/kg/injection, schedule: Q01DX010 (ip), vehicle: saline 100 % of control | dose: 473.0 mg/kg/injection, schedule: Q01DX010 (ip), vehicle: saline 100 % of control

S=C(N/N=C/c1ccc(Cl)s1)NC12CC3CC(CC(C3)C1)C2
inactive: dose: 30.0 mg/kg/injection, schedule: Q01DX005 (ip), vehicle: Klucel (hydroxypropylcellulose) (HPC) 87 % of control | [1] 93 % of control | [2] 102 % of control | [3] 100 % of control

C1CNC2NCCNC2N1 (stereo unspecified)
inactive: [4] 118 % of control

C[n+]1ccc(C(c2ccccc2)c2ccccc2)cc1
inactive: dose: 6.25 mg/kg/injection, schedule: Q01DX009 (ip), vehicle: saline 104 % of control | dose: 12.5 mg/kg/injection, schedule: Q01DX009 (ip), vehicle: saline 112 % of control | [4] 100 % of control

Cn1cccc1C(C=C(c1ccccc1)c1ccccc1)c1cccn1C
inactive: dose: 12.5 mg/kg/injection, schedule: Q01DX005 (ip), vehicle: saline with Tween-80 113 % of control | [5] 114 % of control | [6] 104 % of control and 88 % of control

O=C1NC(=O)C(c2ccccc2)(c2ccccc2)N1S(=O)(=O)c1ccccc1
inactive: [7] 100 % of control | [8] 108 % of control | dose: 200.0 mg/kg/injection, schedule: Q01DX009 (ip), vehicle: Klucel (hydroxypropylcellulose) (HPC) 106 % of control

CN(C)C(=S)S(=O)(=O)c1ccccc1
inactive: [9] 123 % of control | [10] 123 % of control | [7] 123 % of control

NC1CONC1=O (stereo unspecified)
inactive: [11] 109 % of control | [12] 100 % of control | [13] 100 % of control | [14] 109 % of control | [15] 100 % of control | [16] 109 % of control

O=c1c2ccc(Cl)cc2nc2nc(-c3ccccc3)c3cc(Cl)ccc3n12
inactive: [17] 107 % of control | [18] 106 % of control | [19] 97 % of control

Cc1ccc(-c2cnc3c(n2)c(=O)[nH]c(=O)n3C)cc1
inactive: dose: 100.0 mg/kg/injection, schedule: Q04DX003 (ip), vehicle: Klucel (hydroxypropylcellulose) (HPC) 103 % of control | dose: 200.0 mg/kg/injection, schedule: Q04DX003 (ip), vehicle: Klucel (hydroxypropylcellulose) (HPC) 98 % of control

CCN(CC)CCOc1ccccc1C(C)=O
inactive: [5] 93 % of control | [6] 99 % of control

CC1(C)N=C(N)N=C(N)N1c1cccc(CC(=O)Nc2ccc(S(=O)(=O)F)cc2)c1
inactive: [14] 122 % of control

CCOc1ccc(NS(=O)(=O)c2ccc(N)cc2)cc1CN(CCCl)CCCl
inactive: [20] 99 % of control | [21] 99 % of control | [22] 93 % of control

O=C(Nc1ccc(Cl)cc1)/C(Cl)=C1/Sc2ccccc2NC1=O
inactive: [20] 97 % of control | [21] 91 % of control | [22] 91 % of control

Cc1onc(-c2c(Cl)cccc2Cl)c1C(=O)Oc1ccc(-c2ccc(OC(=O)c3c(-c4c(Cl)cccc4Cl)noc3C)cc2)cc1
inactive: [17] 108 % of control | [18] 102 % of control | [19] 89 % of control

CNC(=S)NNc1ccccn1
inactive: dose: 12.5 mg/kg/injection, schedule: Q01DX009 (ip), vehicle: other 105 % of control | dose: 25.0 mg/kg/injection, schedule: Q01DX009 (ip), vehicle: other 102 % of control | dose: 50.0 mg/kg/injection, schedule: Q01DX009 (ip), vehicle: other 104 % of control | dose: 100.0 mg/kg/injection, schedule: Q01DX009 (ip), vehicle: other 101 % of control | dose: 200.0 mg/kg/injection, schedule: Q01DX009 (ip), vehicle: other 95 % of control

CCOC(=O)c1cn2ccccc2c(C(=O)c2cccnc2)c1=N
inactive: dose: 100.0 mg/kg/injection, schedule: Q04DX003 (ip), vehicle: saline 91 % of control | dose: 200.0 mg/kg/injection, schedule: Q04DX003 (ip), vehicle: saline 96 % of control | dose: 400.0 mg/kg/injection, schedule: Q04DX003 (ip), vehicle: saline 96 % of control

[CH3][Sn]([CH3])([O]C(=O)c1ccccc1)[O]C(=O)c1ccccc1
inactive: [23] 107 % of control | [24] 108 % of control

C=C1C(=O)OC2CC3(C)CCCC(C)C3=CC12 (stereo unspecified)
inactive: [9] 100 % of control | [10] 96 % of control | [7] 101 % of control | [8] 100 % of control

CCC(=O)N1C(=O)C(C)C23c4cccc([N+](=O)[O-])c4C(=O)N2CCCN13 (stereo unspecified)
inactive: [1] 100 % of control | [2] 97 % of control | [3] 93 % of control

CC(C)(C)N(O)N=O.CC(C)(C)N(O)N=O.[Cu]
inactive: dose: 6.25 mg/kg/injection, schedule: Q01DX001 (ip), vehicle: saline with Tween-80 103 % of control

COc1ccc(CSC(=S)Nc2cccc(C(F)(F)F)c2)cc1
inactive: dose: 50.0 mg/kg/injection, schedule: Q01DX009 (ip), vehicle: saline 97 % of control | dose: 50.0 mg/kg/injection, schedule: Q01DX009 (ip), vehicle: suspension in saline 90 % of control | dose: 100.0 mg/kg/injection, schedule: Q01DX009 (ip), vehicle: saline 101 % of control | dose: 200.0 mg/kg/injection, schedule: Q01DX009 (ip), vehicle: saline 118 % of control | dose: 200.0 mg/kg/injection, schedule: Q01DX009 (ip), vehicle: suspension in saline 99 % of control

CCN(c1ccccc1C(=O)O)S(=O)(=O)c1ccc(C)cc1
inactive: [23] 104 % of control | [24] 106 % of control

C1CCCCCc2c(-c3noc4c3CCCCCCCCCC4)noc2CCCC1
inactive: dose: 60.0 mg/kg/injection, schedule: Q01DX005 (ip), vehicle: Klucel + Tween-80 105 % of control | dose: 120.0 mg/kg/injection, schedule: Q01DX005 (ip), vehicle: Klucel + Tween-80 97 % of control | dose: 240.0 mg/kg/injection, schedule: Q01DX005 (ip), vehicle: Klucel + Tween-80 100 % of control

COc1ccc(C(c2cc3c(cc2O)OCO3)N2CCCCC2)c(OC)c1 (stereo unspecified)
inactive: [1] 108 % of control | [2] 110 % of control | [3] 117 % of control

O=c1[nH]c2c([N+](=O)[O-])cc(Cl)cc2nc1/C=C(\O)c1cccc2ccccc12
inactive: [1] 101 % of control | [2] 102 % of control | [3] 105 % of control

CCCCCCOCC(=O)O
inactive: dose: 50.0 mg/kg/injection, schedule: Q01DX009 (ip), vehicle: saline with Tween-80 102 % of control | [11] 91 % of control

C1[Se]CC12C[Se]C2
inactive: dose: 20.0 mg/kg/injection, schedule: Q01DX009 (ip), vehicle: saline with Tween-80 105 % of control

CCCCCCCCCCCCOP(=O)(N1CC1(C)C)N1CC1(C)C (stereo unspecified)
inactive: dose: 2.0 mg/kg/injection, schedule: Q01DX009 (ip), vehicle: saline with Tween-80 108 % of control and 113 % of control | dose: 4.0 mg/kg/injection, schedule: Q01DX009 (ip), vehicle: saline with Tween-80 103 % of control and 108 % of control | dose: 8.0 mg/kg/injection, schedule: Q01DX009 (ip), vehicle: saline with Tween-80 114 % of control and 117 % of control | dose: 16.0 mg/kg/injection, schedule: Q01DX009 (ip), vehicle: saline with Tween-80 102 % of control and 117 % of control

O=S(=O)(Nc1ccccn1)c1ccc(NCc2c3ccccc3nc3cc(Cl)ccc23)cc1
inactive: [17] 97 % of control | [18] 98 % of control | [19] 96 % of control

C=C(C)C1CC=C(C)CC1 (stereo unspecified)
inactive: [11] 95 % of control | [12] 100 % of control | [13] 104 % of control | [14] 104 % of control | [15] 114 % of control | [16] 109 % of control

Cn1cnc([N+](=O)[O-])c1S(N)(=O)=O
inactive: [11] 88 % of control | [13] 123 % of control
